Assay results reported in paper PMC8470104, “Anti-Metatype Antibody Screening, Sandwich Immunoassay Development, and Structural Insights for β-Lactams Based on Penicillin Binding Protein” (Molecules, 2021).

Legend:
[1] = molecular target: PBP2x* (Streptococcus pneumoniae, UniProt P14677); experiment: direct competitive ELISA, binding affinity of β-lactams to PBP2x*; conditions: for IC50: IC50 (affinity to PBP2x*)
Source text: The anti-metatype antibodies that recognize the complex formed by the receptor and ligand was developed by immunization. The success of the immunization depends on the stability of the receptor–drug complex. In the present study, we hypothesized that the complex formed by PBP2x* and β-lactams with high affinity to PBP2x* would achieve higher stability, because more non-covalent bonds typically tend to form between the two. In addition, the conformational change of PBP2x* induced by the combination of the β-lactams with high affinity may be greater due to the existence of more interaction forces, which stimulate the PBP2x* to some extent. Therefore, a direct competitive ELISA was carried out to determine the affinity of 18 β-lactams to PBP2x*. […] In the cephalosporin group, CPZ, CFN, CFZ, and CFM performed poorly: affinities with IC50 were greater than 10 ng/mL, which was almost 2–50-fold that of other drugs such as CTRX, CTX, and KF. (Table 2). Therefore, for the preparation of anti-metatype antibodies, five β-lactams (including PNG, AMP, AMX, CTX, and KF) with high affinity to PBP2x* were selected to form a complex with PBP2x*.
The PBP2x* (100 μL/well) was diluted to an appropriate concentration and coated on microtiter plates, and incubated overnight at 4 °C. After the solution was poured, the plates were washed 3 times with washing buffer and patted dry. Then, 150 μL of blocking solution was added to each well, followed by 1 h of incubation at 37 °C. The β-lactam standards (50 μL), which were diluted to a series of concentrations, were added into each well, then 50 μL of the enzyme marker prepared in our previous study was added, and incubated at 37 °C for 30 min. After the washing procedure, the color was developed by adding tetramethylbenzidine (TMB) substrate. Finally, 2 M H2SO4 (50 μL/well) was used to stop the enzymatic reaction, and the optical density (OD) values of 450 nm was measured.

[2] = tested on: PBP2x*-β-lactam complexes; experiment: sandwich immunoassay of 18 PBP2x*-β-lactam complexes (capture mAb 4H11, detection pAb #5); assay type: binding; conditions: 1000 ng/mL; mAb 4H11 capture, pAb #5 detection; n = 3; S/N > 1 positive detection
Method: Microtiter plates were coated with 100 μL anti-mouse IgG antibody in CB buffer and incubated at 4 °C overnight. The plates were subsequently washed and blocked with 150 μL of 2% skim milk. Then, 100 μL of diluted mAb was added to the wells and incubated for 1 h at 37 °C. After washing, 100 μL individual PBP2x* or receptor–ligand complexes of 18 β-lactams with PBP2x* that were diluted to 1 μg/mL was added. The incubation was carried out at 37 °C for 1 h, followed by another washing procedure. Then, 100 μL diluted HRP-labeled pAb was added to the wells and incubated for 1 h at 37 °C. The TMB substrate solution was added after washing, followed by the addition of 2 M H2SO4 to stop the reaction, and finally the OD values were measured at 450 nm.

[3] = PBP2x* coated, enzyme marker competitor

Sequence of PBP2x* (P14677 49-750): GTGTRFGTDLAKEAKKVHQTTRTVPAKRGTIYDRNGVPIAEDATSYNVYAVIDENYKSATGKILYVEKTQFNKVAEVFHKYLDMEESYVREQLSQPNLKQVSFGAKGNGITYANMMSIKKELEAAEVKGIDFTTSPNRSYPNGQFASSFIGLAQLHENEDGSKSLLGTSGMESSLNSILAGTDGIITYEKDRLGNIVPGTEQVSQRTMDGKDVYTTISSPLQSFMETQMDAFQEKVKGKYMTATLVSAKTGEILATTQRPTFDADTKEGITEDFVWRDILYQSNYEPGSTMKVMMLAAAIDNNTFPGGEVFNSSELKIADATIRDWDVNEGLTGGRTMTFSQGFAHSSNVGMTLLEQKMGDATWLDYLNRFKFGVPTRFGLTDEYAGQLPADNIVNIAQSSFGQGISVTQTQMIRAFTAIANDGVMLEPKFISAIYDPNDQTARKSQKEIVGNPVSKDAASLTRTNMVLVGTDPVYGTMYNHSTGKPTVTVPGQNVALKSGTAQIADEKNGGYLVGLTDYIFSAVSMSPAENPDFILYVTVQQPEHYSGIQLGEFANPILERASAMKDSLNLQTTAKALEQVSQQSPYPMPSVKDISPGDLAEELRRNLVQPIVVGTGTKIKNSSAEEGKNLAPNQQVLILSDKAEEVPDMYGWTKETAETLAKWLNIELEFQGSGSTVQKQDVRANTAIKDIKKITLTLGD

| Compound | affinity to PBP2x* (in words) [1] | IC50 [1, 3] [nM] | Signal-to-noise ratio (S/N) of the sandwich immunoassay [2] | IC50 (affinity to PBP2x*) [1, 3] [ng/mL] |
| --- | --- | --- | --- | --- |
| Cc1onc(-c2ccccc2)c1C(=O)N[C@@H]1C(=O)N2[C@@H]1SC(C)(C)[C@@H]2C(=O)O [OXA, Oxacillin] | relatively poor affinity | 25.1 | – | – |
| Cc1onc(-c2c(Cl)cccc2Cl)c1C(=O)N[C@@H]1C(=O)N2[C@@H]1SC(C)(C)[C@@H]2C(=O)O [DCX, Dicloxacillin] | relatively poor affinity | 32.6 | – | – |
| CO/N=C(\C(=O)N[C@@H]1C(=O)N2C(C(=O)[O-])=C(C[N+]3(C)CCCC3)CS[C@H]12)c1csc(N)n1 [CFP, Cefepime] | – | 15.2 | – | – |
| CCN1CCN(C(=O)N[C@@H](C(=O)N[C@@H]2C(=O)N3[C@@H]2SC(C)(C)[C@@H]3C(=O)O)c2ccccc2)C(=O)C1=O [PIPC, Piperacillin] | high affinity | 15 | – | – |
| CO/N=C(\C(=O)N[C@@H]1C(=O)N2C(C(=O)O)=C(COC(C)=O)CS[C@H]12)c1csc(N)n1 [CTX, Cefotaxime] | high affinity | 10.4 | – | – |
| CO/N=C(\C(=O)N[C@@H]1C(=O)N2C(C(=O)O)=C(CSc3nc(=O)c(=O)[nH]n3C)CS[C@H]12)c1csc(N)n1 [CTRX, Cefatriaxone] | – | 4.24 | – | – |
| Cc1onc(-c2ccccc2Cl)c1C(=O)N[C@@H]1C(=O)N2[C@@H]1SC(C)(C)[C@@H]2C(=O)O [CLX, Cloxacillin] | relatively poor affinity | 173 | – | – |
| CC1(C)S[C@@H]2[C@H](NC(=O)[C@H](NC(=O)N3CCNC3=O)c3ccccc3)C(=O)N2[C@H]1C(=O)O [AZL, Azlocillin] | high affinity | 14.5 | – | – |
| C=CC1=C(C(=O)O)N2C(=O)[C@@H](NC(=O)/C(=N\OCC(=O)O)c3csc(N)n3)[C@H]2SC1 [CFM, Cefixime] | – | 64.7 | – | – |
| CC1(C)S[C@@H]2[C@H](NC(=O)[C@H](N)c3ccc(O)cc3)C(=O)N2[C@H]1C(=O)O [AMX, Amoxicillin] | high affinity | 18.7 | < 1 | – |
| CC(=O)OCC1=C(C(=O)O)N2C(=O)[C@@H](NC(=O)CSc3ccncc3)[C@H]2SC1 [CFAP, Cefapirin] | – | 14.3 | – | – |
| CC1(C)S[C@@H]2[C@H](NC(=O)[C@H](N)c3ccccc3)C(=O)N2[C@H]1C(=O)O [AMP, Ampicillin] | high affinity | 22.3 | < 1 | – |
| CC1(C)S[C@@H]2[C@H](NC(=O)Cc3ccccc3)C(=O)N2[C@H]1C(=O)O [PNG, Penicillin G] | high affinity | 10.6 | < 1 | – |
| Cc1nnc(SCC2=C(C(=O)O)N3C(=O)[C@@H](NC(=O)Cn4cnnn4)[C@H]3SC2)s1 [CFZ, Cefazolin] | – | 53.6 | – | – |
| NC(=O)c1cc[n+](CC2=C(C(=O)[O-])N3C(=O)[C@@H](NC(=O)Cc4cccs4)[C@H]3SC2)cc1 [CFN, Cefalonium] | – | 33.4 | – | – |
| CC(=O)OCC1=C(C(=O)O)N2C(=O)[C@@H](NC(=O)Cc3cccs3)[C@H]2SC1 [KF, Cefalothin] | high affinity | – | < 1 | 7.89 |
| CO/N=C(\C(=O)N[C@@H]1C(=O)N2C(C(=O)O)=C(CSC(=O)c3ccco3)CS[C@H]12)c1csc(N)n1 [CFT, Ceftiofur] | – | 5.02 | – | – |
| CCN1CCN(C(=O)N[C@@H](C(=O)N[C@@H]2C(=O)N3C(C(=O)O)=C(CSc4nnnn4C)CS[C@H]23)c2ccc(O)cc2)C(=O)C1=O [CPZ, Cefoperazone] | – | 155 | – | – |
